In experiment [1] the target is T1, H-2 K^d (Mus musculus, UniProt P01902).
T1 sequence (P01902 22-368): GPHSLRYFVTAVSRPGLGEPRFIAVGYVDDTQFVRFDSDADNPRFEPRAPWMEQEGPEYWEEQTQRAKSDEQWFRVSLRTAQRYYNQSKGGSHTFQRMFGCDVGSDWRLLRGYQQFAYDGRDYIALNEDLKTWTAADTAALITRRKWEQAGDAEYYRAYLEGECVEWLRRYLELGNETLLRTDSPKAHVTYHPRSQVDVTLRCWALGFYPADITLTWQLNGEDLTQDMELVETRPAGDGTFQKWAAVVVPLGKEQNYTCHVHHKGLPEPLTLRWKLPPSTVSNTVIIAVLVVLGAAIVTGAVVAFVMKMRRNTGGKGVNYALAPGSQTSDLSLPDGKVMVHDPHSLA
T1 sequence (P01887 21-119 partner): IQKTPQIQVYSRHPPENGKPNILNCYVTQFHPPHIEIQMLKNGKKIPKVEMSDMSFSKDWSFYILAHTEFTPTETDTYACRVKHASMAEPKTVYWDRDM
The experiment is described as follows: Binding assays: inhibition of binding of a radiolabeled standard peptide to purified MHC molecules. On the procedure:
Binding assays. Binding of peptides to H-2 K^d was determined using quantitative assays based on the inhibition of binding of a radiolabeled standard peptide to purified MHC molecules essentially as described previously. […] Under the conditions utilized, where [label]<[MHC] and IC50≥[MHC], the measured IC50 values are reasonable approximations of the dissociation constant values.

In experiment [2] the test system is CD8+ cells. As to the kind of experiment: IFNγ ELISPOT on CD8+ cells of immunized mice. In kind it is in vivo, BALB/c mice. To be noted: for ELISpot: mice immunized with mutant peptide; for CD8 T cell response of immunized mice: ELISPOT. On the procedure:
For the ELISPOT assays, the negative controls were CD8+ cells from immunized mice without peptide stimulation. […] The magnitude of responses was rated by mean spot numbers per million CD8+ cells: 5-10 (+); 11-20 (++); 21-50 (+++); 51-100(++++) and >100(+++++).
All 18 peptides were used to immunize BALB/c mice. The draining lymph nodes (dLNs) of immunized mice were harvested one week after the single immunization, and the cells were stimulated in vitro for 16 h without any added peptide, the mutant peptide used for immunization, or the corresponding wild type peptide. The CD8+ cells were analyzed for activation (CD44+) and effector function (intracellular IFNγ+). (see Materials and Methods regarding the details of FACS analysis.) All possible patterns of immune-reactivity were observed (FIG. 3A): no immune response (12/18), a mutant peptide-specific, i.e. tumor-specific immune response (5/18), and a cross-reactive response between the mutant and corresponding wild type peptides (1/18).

Where [3] appears, read: mutant peptide, read-out: Measured IC50 for K^d (Mut/WT): Mut.
[4] abbreviates: WT counterpart peptide, read-out: Measured IC50 for K^d (Mut/WT): WT.

Entries after “also recorded” stand apart in the source; their conditions may differ. Where two headings read alike, the source gives them in different places. Peptide text beside a SMILES is read from it. Bounds are passed on as bounds.

On to `CC(C)C[C@H](NC(=O)CNC(=O)[C@H](CC(C)C)NC(=O)[C@H](CC(C)C)NC(=O)[C@H](CO)NC(=O)[C@H](CCCNC(=N)N)NC(=O)[C@H](CCCNC(=N)N)NC(=O)[C@H](CO)NC(=O)[C@H](CO)NC(=O)[C@H](Cc1c[nH]c2ccccc12)NC(=O)[C@@H](N)CO)C(=O)O` [9430016H08Rik] (H-SWSSRRSLLGL-OH), for which the IC50 in experiment [1] (WT counterpart peptide, read-out: Measured IC50 for K^d (Mut/WT): WT, class symbol) is above 70 µM. In the case of `CSCC[C@H](NC(=O)[C@@H]1CCCN1C(=O)[C@@H](NC(=O)[C@H](Cc1ccc(O)cc1)NC(=O)[C@@H](N)CC(=O)O)C(C)C)C(=O)N[C@@H](CCC(=O)O)C(=O)N[C@@H](CCC(N)=O)C(=O)N1CCC[C@H]1C(=O)O` [Alkbh6.1, D(y/D)VPMEQP] (H-DYVPMEQP-OH), the IC50 in experiment [1] is above 70 µM; in experiment [1] (setting [3]), 60.9 µM. Consider `CSCC[C@H](NC(=O)[C@@H]1CCCN1C(=O)[C@@H](NC(=O)[C@H](Cc1ccc(O)cc1)NC(=O)[C@@H](N)CC(=O)O)C(C)C)C(=O)N[C@@H](CCC(=O)O)C(=O)N[C@@H](CCC(N)=O)C(=O)N1CCC[C@H]1C(=O)N[C@@H](CCCNC(=N)N)C(=O)N1CCC[C@H]1C(=O)O` [Alkbh6.3] (H-DYVPMEQPRP-OH; N-terminus and C-terminus assumed), for which the IC50 in experiment [1] (setting [4]) was found to be 23.6 µM.

Turning to `CC(C)C[C@H](NC(=O)[C@H](CCC(=O)O)NC(=O)[C@H](Cc1c[nH]c2ccccc12)NC(=O)[C@H](CS)NC(=O)[C@@H](NC(=O)[C@H](CCC(=O)O)NC(=O)[C@H](CS)NC(=O)[C@H](Cc1ccc(O)cc1)NC(=O)[C@H](C)N)[C@@H](C)O)C(=O)O` [Apc] (H-AYCETCWEL-OH), in experiment [2], the ELISpot entry is “+++++ (>100 spots/106 CD8 = +++++)”. Besides, the IC50 in experiment [1] (setting [4]) amounted to 0.06 µM.

Turning to `CSCC[C@H](NC(=O)[C@H](CC(C)C)NC(=O)CNC(=O)[C@@H]1CCCN1C(=O)[C@H](Cc1ccccc1)NC(=O)[C@@H](N)C(C)C)C(=O)N[C@@H](CCC(=O)O)C(=O)N[C@@H](CC(C)C)C(=O)O` [Atxn10.2, VFPGLME(l/R)] (H-VFPGLMEL-OH; N-terminus and C-terminus assumed), the “CD8 T cell response of immunized mice” value in experiment [2] (text) is on record as “did not elicit a detectable response at all”; in experiment [2] (text, listed as Atxn 10.2), “did not elicit a detectable CD8 response”. The IC50 in experiment [1] (setting [4]) worked out at 1.11 µM. As to `CC(C)C[C@H](NC(=O)[C@H](CCC(=O)O)NC(=O)[C@H](CC(=O)O)NC(=O)[C@H](CCC(=O)O)NC(=O)[C@H](CC(C)C)NC(=O)[C@H](CC(C)C)NC(=O)CNC(=O)[C@H](CCC(N)=O)NC(=O)[C@H](CC(C)C)NC(=O)[C@@H](N)CCC(=O)O)C(=O)O` [Ccdc136] (H-ELQGLLEDEL-OH; N-terminus and C-terminus assumed), the “CD8 T cell response of immunized mice” value in experiment [2] is given as “did not elicit a detectable response at all; also recorded: did not elicit a detectable CD8 response”. Further, the IC50 in experiment [1] (setting [4]) is 4.54 µM. Take `CC(C)C[C@H](N)C(=O)N[C@@H](Cc1ccc(O)cc1)C(=O)N[C@@H](CC(=O)O)C(=O)N[C@H](C(=O)N[C@@H](CC(=O)O)C(=O)N[C@@H](C)C(=O)N[C@@H](C)C(=O)N[C@@H](Cc1ccccc1)C(=O)O)C(C)C` [Cpsf2, L(y/D)DVDAAF] (H-LYDVDAAF-OH): the ELISpot result in experiment [2] was “+++ (21-50 spots/10^6 CD8 = +++)”. For the same molecule, the results for the IC50 in experiment [1] and in experiment [1] (setting [3]) were above 70 µM and 1.41 µM, respectively. For `CC[C@H](C)[C@H](NC(=O)[C@H](C)NC(=O)[C@H](Cc1ccc(O)cc1)NC(=O)[C@H](CCC(N)=O)NC(=O)[C@@H](NC(=O)[C@H](CC(C)C)NC(=O)[C@H](Cc1ccc(O)cc1)NC(=O)[C@@H]1CCCN1)[C@@H](C)O)C(=O)N[C@H](C(=O)N[C@@H](CCSC)C(=O)N[C@@H](CC(C)C)C(=O)O)[C@@H](C)CC` [Dhx8.1] (H-PYLTQYAIIML-OH), in that order: “+++++ (>100 spots/10^6 CD8 = +++++)”, 1.65 µM and 2.19 µM. In the case of `CC[C@H](C)[C@H](NC(=O)[C@H](C)NC(=O)[C@H](Cc1ccc(O)cc1)NC(=O)[C@H](CCC(N)=O)NC(=O)[C@@H](NC(=O)[C@H](CC(C)C)NC(=O)[C@H](Cc1ccc(O)cc1)NC(=O)[C@@H]1CCCN1)[C@@H](C)O)C(=O)O` [Dhx8.2, P(y/D)LTQYAI] (H-PYLTQYAI-OH; N-terminus and C-terminus assumed), the ELISpot entry in experiment [2] is reported as “+++++ (>100 spots/10^6 CD8 = +++++)”.

As for `CC[C@H](C)[C@H](NC(=O)[C@@H](NC(=O)[C@H](C)NC(=O)[C@H](Cc1ccc(O)cc1)NC(=O)[C@H](CCC(N)=O)NC(=O)[C@@H](NC(=O)[C@H](CC(C)C)NC(=O)[C@H](Cc1ccc(O)cc1)NC(=O)[C@@H]1CCCN1)[C@@H](C)O)[C@@H](C)CC)C(=O)O` [Dhx8.3, P(y/D)LTQYAII] (H-PYLTQYAII-OH), in experiment [2], the ELISpot result is “+++++ (>100 spots/10^6 CD8 = +++++)”. The IC50 in experiment [1] was 1.42 µM; in experiment [1] (setting [3]), 0.244 µM.

In the case of `CC[C@H](C)[C@H](NC(=O)[C@H](C)NC(=O)[C@H](Cc1ccc(O)cc1)NC(=O)[C@H](CCC(N)=O)NC(=O)[C@@H](NC(=O)[C@H](CC(C)C)NC(=O)[C@H](Cc1ccc(O)cc1)NC(=O)[C@@H]1CCCN1)[C@@H](C)O)C(=O)N[C@H](C(=O)N[C@@H](CCSC)C(=O)O)[C@@H](C)CC` [Dhx8.4] (H-PYLTQYAIIM-OH), the ELISpot result in experiment [2] is “+++ (21-50 spots/10^6 CD8 = +++)”. Further, the IC50 in experiment [1] was found to be 6.26 µM; in experiment [1] (setting [3]), 6.57 µM. With `CC(C)C[C@H](NC(=O)[C@H](CCCNC(=N)N)NC(=O)[C@@H]1CCCN1C(=O)[C@H](CO)NC(=O)[C@H](CCCNC(=N)N)NC(=O)[C@H](Cc1ccc(O)cc1)NC(=O)[C@H](CCC(N)=O)NC(=O)[C@H](CCCNC(=N)N)NC(=O)[C@H](CCC(N)=O)NC(=O)[C@H](CC(C)C)NC(=O)[C@@H](N)CCCCN)C(=O)O` [Mast2] (H-KLQRQYRSPRL-OH), the IC50 in experiment [1] is 8.51 µM. Regarding `CC[C@H](C)[C@H](NC(=O)[C@H](CS)NC(=O)CNC(=O)[C@H](Cc1c[nH]cn1)NC(=O)[C@H](Cc1ccccc1)NC(=O)CN)C(=O)N[C@@H](Cc1c[nH]cn1)C(=O)N[C@@H](CCC(=O)O)C(=O)N[C@H](C(=O)N[C@@H](CC(C)C)C(=O)O)C(C)C` [Slit3] (H-GFHGCIHEVL-OH), the IC50 in experiment [1] (mutant neo-epitopes, read-out: measured IC50 / affinity for binding to K^d) was around 50 µM. `CC[C@H](C)[C@H](NC(=O)[C@H](CS)NC(=O)[C@H](CC(C)C)NC(=O)[C@H](C)NC(=O)[C@H](CCC(N)=O)NC(=O)[C@H](CC(C)C)NC(=O)[C@H](CCSC)NC(=O)[C@H](Cc1ccc(O)cc1)NC(=O)[C@@H](N)CO)C(=O)N1CCC[C@H]1C(=O)O` [Tnpo3.3] (H-SYMLQALCIP-OH) displayed an IC50 in experiment [1] of 0.111 µM. The same measure, in the same setting: under `CSCC[C@H](NC(=O)[C@H](Cc1ccc(O)cc1)NC(=O)[C@@H](N)CO)C(=O)N[C@@H](CC(C)C)C(=O)N[C@@H](CCC(N)=O)C(=O)N[C@@H](C)C(=O)N[C@@H](CC(C)C)C(=O)N[C@@H](CS)C(=O)O` [Tnpo3.4, (sy/LD)MLQALC] (H-SYMLQALC-OH) stands 0.089 µM; under `CC(C)C[C@H](NC(=O)[C@H](CC(=O)O)NC(=O)[C@H](CC(C)C)NC(=O)[C@H](Cc1ccc(O)cc1)NC(=O)[C@@H](N)CCC(=O)O)C(=O)N[C@@H](CCC(N)=O)C(=O)N[C@H](C(=O)N[C@@H](CCC(N)=O)C(=O)O)[C@@H](C)O` [Zfp236.1, E(y/D)LDLQTQ] (H-EYLDLQTQ-OH), above 70 µM. The same measure, in the same setting: under `CC(C)C[C@H](NC(=O)[C@H](CC(=O)O)NC(=O)[C@H](CC(C)C)NC(=O)[C@H](Cc1ccc(O)cc1)NC(=O)[C@@H](N)CCC(=O)O)C(=O)N[C@@H](CCC(N)=O)C(=O)N[C@H](C(=O)N[C@@H](CCC(N)=O)C(=O)NCC(=O)O)[C@@H](C)O` [Zfp236.2, E(y/D)LDLQTQG] (H-EYLDLQTQG-OH) stands above 70 µM.

The values above are taken from patent US11338026B2, “Identification of immunologically protective neo-epitopes for the treatment of cancers” (THE UNIVERSITY OF CONNECTICUT, priority 2014, dated 2022).
